Data: patent US20080241904A1, “PROCESS FOR PRODUCING ISOMALTOSE AND USES THEREOF” (KABUSHIKI KAISHA HAYASHIBARA SEIBUTSU KAGAKU KENKYUJO, priority 2001, published 2008)

Assays:
[1] = tested on: α-isomaltosylglucosaccharide-forming enzyme; assay: Influence of metal ions on enzyme activity, Experiment 4-2 (Strain C11); type: biochemical, Bacillus globisporus C11; conditions: for Effect on enzyme activity (in words): 1 mM, summary of Table 6; for Relative activity: in the presence of 1 mM of each metal ion, None = 100
[2] = tested on: α-isomaltosylglucosaccharide-forming enzyme; assay: Influence of metal ions on activity of α-isomaltosylglucosaccharide-forming enzyme (Strain C9); type: biochemical, Bacillus globisporus C9; conditions: for Effect on enzyme activity (in words): 1 mM, summary of Table 2; for Relative activity: in the presence of 1 mM of each metal ion, None = 100
Method: The activities of these enzymes were assayed as follows: The α-isomaltosylglucosaccharide-forming enzyme of the present invention was assayed for enzymatic activity by dissolving maltotriose in 100 mM acetate buffer (pH 6.0) to give a concentration of 2% (w/v) for a substrate solution, adding a 0.5 ml of an enzyme solution to a 0.5 ml of the substrate solution, enzymatically reacting the mixture solution at 35° C. for 60 min, suspending the reaction mixture by heating at 100° C. for 10 min, and quantifying maltose, among the isomaltosyl maltose and maltose formed in the reaction mixture, by high-performance liquid chromatography (abbreviated as “HPLC” hereinafter). HPLC was carried out using “YMC PACK ODS-AQ303 column” commercialized by YMC Co., Ltd., Tokyo, Japan, at a column temperature of 40° C. and a flow rate of 0.5 ml/min of water; and using “RI-8012”, a differential refractometer commercialized by Tosoh Corporation, Tokyo, Japan. One unit activity of the α-isomaltosylglucosaccharide-forming enzyme is defined as the enzyme amount that forms one micromole of maltose per minute under the above enzymatic reaction conditions.
The influence of metal ions on the activity of α-isomaltosylglucosaccharide-forming enzyme was examined in the presence of 1 mM of each metal-ion according to the assay for the enzyme activity.

[3] = tested on: α-isomaltosyl-transferring enzyme; assay: Influence of metal ions on activity of α-isomaltosyl-transferring enzyme (Strain C11); type: biochemical, Bacillus globisporus C11; conditions: for Relative activity: in the presence of 1 mM of each metal ion, None = 100; for Effect on enzyme activity (in words): 1 mM, summary of Table 8
Method: (§1) The α-isomaltosyl-transferring enzyme was assayed for enzymatic activity by dissolving panose in 100 mM acetate buffer (pH 6.0) to give a concentration of 2% (w/v) for a substrate solution, adding a 0.5 ml of an enzyme solution to 0.5 ml of the substrate solution, enzymatically reacting the mixture solution at 35° C. for 30 min, suspending the reaction mixture by boiling for 10 min, and quantifying glucose, among the cyclotetrasaccharide and glucose formed in the reaction mixture, by the glucose oxidase method. One unit activity of the α-isomaltosyl-transferring enzyme is defined as the enzyme amount that forms one micromole of glucose per minute under the above enzymatic reaction conditions.
(§2) The influence of metal ions on the activity of α-isomaltosyl-transferring enzyme was examined in the presence of 1 mM of each metal-ion according to the assay for the enzyme activity.

[4] = tested on: α-isomaltosyl-transferring enzyme; assay: Influence of metal ions on activity of α-isomaltosyl-transferring enzyme (Strain C9); type: biochemical, Bacillus globisporus C9; conditions: for Relative activity: in the presence of 1 mM of each metal ion, None = 100; for Effect on enzyme activity (in words): 1 mM, summary of Table 4
Method: as §1, §2

| Compound | Effect on enzyme activity (in words) [1] | Relative activity [1] | Effect on enzyme activity (in words) [2] | Relative activity [2] | Relative activity [3] | Relative activity [4] | Effect on enzyme activity (in words) [3] | Effect on enzyme activity (in words) [4] |
| --- | --- | --- | --- | --- | --- | --- | --- | --- |
| [Ba+2] [Ba^2+] | inhibited | 65% | inhibited | 65% | 90% | 102% |  |  |
| [Mn+2] [Mn^2+] | activated | 142% | activated | 111% | 93% | 106% |  |  |
| [Pb+2] [Pb^2+] |  | 101% |  | 103% | 74% | 89% |  |  |
| [Ca+2] [Ca^2+] | activated | 109% | activated | 115% | 91% | 101% | not activated | not activated |
| [Zn+2] [Zn^2+] |  | 91% |  | 92% | 83% | 88% |  |  |
| [Hg+2] [Hg^2+] | greatly inhibited | 4% | greatly inhibited | 4% | 2% | 1% | greatly inhibited | greatly inhibited |
| O=C(O)CN(CCN(CC(=O)O)CC(=O)O)CC(=O)O [EDTA] | greatly inhibited | 24% | greatly inhibited | 20% | 98% | 104% | not inhibited | not inhibited |
| [Sr+2] [Sr^2+] | inhibited | 83% | inhibited | 80% | 93% | 101% |  |  |
| [Ni+2] [Ni^2+] |  | 93% |  |  | 89% | 102% |  |  |
| [Co+2] [Co^2+] |  | 96% |  | 100% | 89% | 103% |  |  |
| [Mg+2] [Mg^2+] |  |  |  | 100% | 91% |  |  |  |
| [Cu+2] [Cu^2+] | greatly inhibited | 23% | greatly inhibited | 15% | 56% | 57% | inhibited | inhibited |
| [Al+3] [Al^3+] |  | 100% |  | 99% | 89% | 103% |  |  |
